Values joined by “and” are separate entries in the source; they are usually repeats but may differ in a detail not shown here. Equal entries are not always repeated. Toxic doses and inconclusive results are not listed. No stated cut-off is given here; in the data, active means T/C of 150% or more; inactive means T/C below 125%.
Test system: L1210 leukemia ip in BDF1 mice, survival T/C
Assay: NCI In Vivo Anticancer Drug Screen. Data for tumor model L1210 Leukemia (intraperitoneal) in B6D2F1 (BDF1) mice
Settings: endpoint: mean survival time, higher = longer survival
Summary of the method: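 Antitumor effect is assessed in tumor-bearing animals. Survival in the compound arm is compared with a vehicle-dosed control arm and expressed as their quotient.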

[1] = dose: 100.0 mg/kg/injection, schedule: Q04DX002 (ip), vehicle: Klucel (hydroxypropylcellulose) (HPC)
[2] = dose: 200.0 mg/kg/injection, schedule: Q04DX002 (ip), vehicle: Klucel (hydroxypropylcellulose) (HPC)
[3] = dose: 400.0 mg/kg/injection, schedule: Q04DX002 (ip), vehicle: Klucel (hydroxypropylcellulose) (HPC)
[4] = dose: 50.0 mg/kg/injection, schedule: Q01DX009 (ip), vehicle: saline with Tween-80
[5] = dose: 100.0 mg/kg/injection, schedule: Q04DX003 (ip), vehicle: saline with Tween-80
[6] = dose: 200.0 mg/kg/injection, schedule: Q04DX003 (ip), vehicle: saline with Tween-80
[7] = dose: 50.0 mg/kg/injection, schedule: Q04DX003 (ip), vehicle: saline
[8] = dose: 100.0 mg/kg/injection, schedule: Q01DX009 (ip), vehicle: saline
[9] = dose: 100.0 mg/kg/injection, schedule: Q04DX003 (ip), vehicle: saline
[10] = dose: 200.0 mg/kg/injection, schedule: Q01DX009 (ip), vehicle: saline
[11] = dose: 100.0 mg/kg/injection, schedule: Q01DX009 (ip), vehicle: Klucel (hydroxypropylcellulose) (HPC)
[12] = dose: 100.0 mg/kg/injection, schedule: Q04DX003 (ip), vehicle: Klucel (hydroxypropylcellulose) (HPC)
[13] = dose: 200.0 mg/kg/injection, schedule: Q04DX003 (ip), vehicle: Klucel (hydroxypropylcellulose) (HPC)
[14] = dose: 400.0 mg/kg/injection, schedule: Q04DX003 (ip), vehicle: Klucel (hydroxypropylcellulose) (HPC)
[15] = dose: 400.0 mg/kg/injection, schedule: Q01DX009 (ip), vehicle: saline
[16] = dose: 100.0 mg/kg/injection, schedule: Q01DX001 (ip), vehicle: Klucel (hydroxypropylcellulose) (HPC)
[17] = dose: 400.0 mg/kg/injection, schedule: Q01DX001 (ip), vehicle: Klucel (hydroxypropylcellulose) (HPC)
[18] = dose: 200.0 mg/kg/injection, schedule: Q01DX009 (ip), vehicle: Klucel (hydroxypropylcellulose) (HPC)
[19] = dose: 400.0 mg/kg/injection, schedule: Q01DX009 (ip), vehicle: Klucel (hydroxypropylcellulose) (HPC)

Measured: T/C

CC(=O)O[C@H]1CC[C@@]2(C)[C@@H](CC[C@@H]3[C@@H]2CC[C@]2(C)[C@@H](C(C)=O)CC[C@@H]32)C1
inactive: [1] 96 % of control | [2] 96 % of control | [3] 96 % of control

O=S(=O)(/C=C/c1ccccc1)c1ccc(F)cc1
inactive: dose: 100.0 mg/kg/injection, schedule: Q01DX001 (ip), vehicle: acetone 97 % of control | dose: 100.0 mg/kg/injection, schedule: Q01DX009 (ip), vehicle: acetone 88 % of control | dose: 200.0 mg/kg/injection, schedule: Q01DX001 (ip), vehicle: acetone 95 % of control | dose: 400.0 mg/kg/injection, schedule: Q01DX001 (ip), vehicle: acetone 95 % of control

CCCCCCC(O)C[N+](=O)[O-] (stereo not drawn)
inactive: dose: 12.5 mg/kg/injection, schedule: Q01DX009 (ip), vehicle: saline with Tween-80 100 % of control | dose: 25.0 mg/kg/injection, schedule: Q01DX009 (ip), vehicle: saline with Tween-80 98 % of control | [4] 93 % of control | [5] 107 % of control | [6] 86 % of control

CCC[N+](CCC)(CCC)Cc1ccccc1
inactive: dose: 5.0 mg/kg/injection, schedule: Q01DX001 (ip), vehicle: saline 108 % of control | dose: 10.0 mg/kg/injection, schedule: Q01DX001 (ip), vehicle: saline 98 % of control | dose: 20.0 mg/kg/injection, schedule: Q01DX001 (ip), vehicle: saline 96 % of control

CN(C)CCOc1ccccc1Cc1ccccc1
inactive: dose: 12.5 mg/kg/injection, schedule: Q01DX009 (ip), vehicle: saline 96 % of control | dose: 25.0 mg/kg/injection, schedule: Q01DX009 (ip), vehicle: saline 97 % of control | dose: 25.0 mg/kg/injection, schedule: Q04DX003 (ip), vehicle: saline 107 % of control | dose: 50.0 mg/kg/injection, schedule: Q01DX009 (ip), vehicle: saline 90 % of control | [7] 98 % of control | [8] 103 % of control | [9] 107 % of control | [10] 110 % of control | dose: 200.0 mg/kg/injection, schedule: Q04DX003 (ip), vehicle: saline 107 % of control

c1nc(NCC2CC2)c2[nH]cnc2n1
inactive: dose: 100.0 mg/kg/injection, schedule: Q01DX001 (ip), vehicle: saline 97 % of control | dose: 200.0 mg/kg/injection, schedule: Q01DX001 (ip), vehicle: saline 97 % of control

CCN(CC)CCOC(=O)Nc1ccccc1
inactive: [7] 98 % of control | [9] 90 % of control

O=C(c1ccc(C(=O)Nc2cccc3ccccc23)c(C(=O)O)c1)c1ccc(C(=O)Nc2cccc3ccccc23)c(C(=O)O)c1
inactive: [1] 97 % of control | [2] 94 % of control | [3] 94 % of control

CCCCNC(=O)Nc1cc(Cl)ccc1C
inactive: dose: 3.12 mg/kg/injection, schedule: Q01DX009 (ip), vehicle: Klucel (hydroxypropylcellulose) (HPC) 97 % of control | dose: 6.25 mg/kg/injection, schedule: Q01DX009 (ip), vehicle: Klucel (hydroxypropylcellulose) (HPC) 92 % of control | dose: 12.5 mg/kg/injection, schedule: Q01DX009 (ip), vehicle: Klucel (hydroxypropylcellulose) (HPC) 101 % of control and 90 % of control | dose: 25.0 mg/kg/injection, schedule: Q01DX009 (ip), vehicle: Klucel (hydroxypropylcellulose) (HPC) 89 % of control | [11] 94 % of control and 86 % of control | [12] 95 % of control | [13] 90 % of control | [14] 90 % of control

O=C1OC(=O)c2c(Br)c(Br)c(Br)c(Br)c21
inactive: [8] 103 % of control | [10] 97 % of control | [15] 107 % of control

C1CCC2C3CCC(C3)C2CC1 (stereo not drawn)
inactive: dose: 100.0 mg/kg/injection, schedule: Q04DX002 (ip), vehicle: other 122 % of control | dose: 200.0 mg/kg/injection, schedule: Q04DX002 (ip), vehicle: other 92 % of control | dose: 400.0 mg/kg/injection, schedule: Q04DX002 (ip), vehicle: other 88 % of control

N#Cc1c2c(c(O)[nH]c1=O)CCCC2
inactive: [8] 97 % of control | [12] 94 % of control | [10] 97 % of control | [13] 102 % of control | [15] 101 % of control | [14] 96 % of control

CC(=O)CC(=O)CC(=O)c1ccccc1
inactive: dose: 50.0 mg/kg/injection, schedule: Q04DX003 (ip), vehicle: Klucel (hydroxypropylcellulose) (HPC) 108 % of control | [16] 97 % of control | [12] 96 % of control | dose: 200.0 mg/kg/injection, schedule: Q01DX001 (ip), vehicle: Klucel (hydroxypropylcellulose) (HPC) 93 % of control | [13] 105 % of control | [17] 102 % of control

CC1CC(C)(C)N/C(=C/C(=O)N2Cc3cc4ccccc4nc3C2)O1 (stereo not drawn)
inactive: [16] 86 % of control | [17] 88 % of control

O=C(O)C1CCCN(C(=O)OCc2ccccc2)C1 (stereo not drawn)
inactive: dose: 50.0 mg/kg/injection, schedule: Q01DX009 (ip), vehicle: Klucel (hydroxypropylcellulose) (HPC) 97 % of control | [11] 100 % of control | [12] 90 % of control | [18] 97 % of control | [13] 90 % of control | [14] 97 % of control

CC(C)N(CCC#N)C(=S)Nc1cccc(C(F)(F)F)c1
inactive: dose: 100.0 mg/kg/injection, schedule: Q01DX009 (ip), vehicle: other 102 % of control | dose: 200.0 mg/kg/injection, schedule: Q01DX009 (ip), vehicle: other 104 % of control | dose: 400.0 mg/kg/injection, schedule: Q01DX009 (ip), vehicle: other 103 % of control

Cc1nc(N2CCCCC2)[nH]c(=O)c1CN(C)N=O
inactive: [4] 94 % of control | dose: 100.0 mg/kg/injection, schedule: Q01DX009 (ip), vehicle: saline with Tween-80 94 % of control | dose: 200.0 mg/kg/injection, schedule: Q01DX009 (ip), vehicle: saline with Tween-80 102 % of control

O=C(Nc1cc[n+](Cc2ccc(S(=O)(=O)F)cc2)cc1)c1ccccc1
inactive: [5] 96 % of control | [6] 98 % of control

CCCCOC(=O)Cc1cccc2ccccc12
inactive: dose: 222.0 mg/kg/injection, schedule: Q01DX Z (ip), vehicle: methylcellulose (MC) 102 % of control | dose: 333.0 mg/kg/injection, schedule: Q01DX Z (ip), vehicle: methylcellulose (MC) 110 % of control | dose: 500.0 mg/kg/injection, schedule: Q01DX Z (ip), vehicle: methylcellulose (MC) 104 % of control

C=C(C)Cc1cnc(SCc2ccccc2)[nH]c1=O
inactive: [11] 93 % of control | [12] 97 % of control | [18] 91 % of control | [13] 103 % of control | [19] 94 % of control | [14] 104 % of control

S=C(C/C=C/CC(=S)SN(c1ccccc1)c1ccccc1)SN(c1ccccc1)c1ccccc1
inactive: [11] 91 % of control | [18] 95 % of control | [19] 90 % of control

O=C(NC(=S)N1CC=CCC1)c1ccccc1
inactive: dose: 100.0 mg/kg/injection, schedule: Q04DX002 (ip), vehicle: gum acacia 97 % of control | dose: 200.0 mg/kg/injection, schedule: Q04DX002 (ip), vehicle: gum acacia 100 % of control | dose: 400.0 mg/kg/injection, schedule: Q04DX002 (ip), vehicle: gum acacia 93 % of control

From PubChem BioAssay AID248 (DTP/NCI, 2004)
